Results on 16 molecules are retold here after patent publication US11186576B2, “Pyrazolo[1,5-A][1,3,5]triazine and pyrazolo[1,5-A]pyrimidine derivatives as CDK inhibitors” (Aurigene Discovery Technologies Limited, priority 2015, dated 2021).

The assay has as its target CDK7/CycH/MNAT1 (Homo sapiens (Human), UniProt P50613). Put plainly: Biochemical assay for CDK7 (TR-FRET kinase assay). Particulars: 60 min pre-incubation, 1 mM ATP; for inhibition at 10 µM / % inhibition @ 10 μM: 10 μM compound; for inhibition at 10 µM: read-out: % inhibition @ 10 μM; for IC50: read-out: IC50. The procedure:
The ability of compounds to inhibit CDK7 kinase activity was tested in a TR-FRET assay using 5 nM of CDK7/CycH/MNAT1 obtained from Invitrogen, USA. Test compounds were pre-incubated with the kinase at room temperature for 60 min. After incubation, substrate mix [100 nM Ultra-light MBP (Perkin Elmer, USA) and 1 mM ATP (Sigma)] was added. The above reaction was stopped by the addition of 40 mM EDTA after 60 minutes of kinase reaction. 1 nM Eu-labelled antiphospho-MBP antibody [Perkin Elmer, USA] was added, mixed well and the fluorescence emission at 615 nm and 665 nm [excitation at 340 nm] was measured. The final DMSO concentration in the assay was 1%. For IC50 determination, appropriate concentrations were made by ⅓^rd serial dilutions of 10 mM DMSO stock solution of test compound. All the fluorescence measurements were made in a Victor 3 Multilabel Counter [Perkin Elmer, USA]. The IC50 was determined by fitting the dose response data to sigmoidal curve fitting equation using GraphPad Prism software V5. To identify compounds that inhibit CDK7 irreversibly, time depended inhibition studies were carried by pre-incubating compound with the enzyme at three time points (20, 60 and 180 min) and carrying out assay as described above.

Chain of CDK7/CycH/MNAT1 (P50613 whole entry): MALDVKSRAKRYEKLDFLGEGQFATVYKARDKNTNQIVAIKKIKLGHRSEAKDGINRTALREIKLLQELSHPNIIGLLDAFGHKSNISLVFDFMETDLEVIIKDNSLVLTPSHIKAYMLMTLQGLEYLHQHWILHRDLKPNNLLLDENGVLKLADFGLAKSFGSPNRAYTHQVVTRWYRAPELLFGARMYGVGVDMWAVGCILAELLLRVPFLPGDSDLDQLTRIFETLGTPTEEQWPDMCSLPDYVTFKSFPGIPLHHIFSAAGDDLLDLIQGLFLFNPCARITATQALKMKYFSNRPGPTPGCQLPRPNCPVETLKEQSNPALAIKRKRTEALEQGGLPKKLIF
Chain of CDK7/CycH/MNAT1 (P51946 whole entry partner): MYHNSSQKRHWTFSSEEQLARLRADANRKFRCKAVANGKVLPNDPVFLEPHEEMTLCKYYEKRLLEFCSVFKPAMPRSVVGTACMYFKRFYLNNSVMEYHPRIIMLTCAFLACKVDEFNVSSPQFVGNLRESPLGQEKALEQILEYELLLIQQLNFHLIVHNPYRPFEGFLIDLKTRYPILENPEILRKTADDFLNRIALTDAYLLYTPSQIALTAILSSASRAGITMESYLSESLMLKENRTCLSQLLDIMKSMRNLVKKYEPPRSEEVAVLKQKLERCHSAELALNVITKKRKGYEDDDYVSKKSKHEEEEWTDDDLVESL
Chain of CDK7/CycH/MNAT1 (P51948 whole entry partner): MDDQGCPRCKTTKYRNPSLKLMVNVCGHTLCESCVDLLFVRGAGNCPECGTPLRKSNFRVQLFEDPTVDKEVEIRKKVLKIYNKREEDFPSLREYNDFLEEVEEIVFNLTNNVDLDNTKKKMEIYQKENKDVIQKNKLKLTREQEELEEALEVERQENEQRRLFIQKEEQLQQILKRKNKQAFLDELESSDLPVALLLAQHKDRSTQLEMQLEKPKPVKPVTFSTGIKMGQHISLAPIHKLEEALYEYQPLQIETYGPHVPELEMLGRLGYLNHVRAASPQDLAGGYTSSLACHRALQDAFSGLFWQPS

As for `C=CC(=O)N[C@H]1CC[C@@H](C(=O)Nc2cccc(CNc3nc(NC4CCCC(O)C4)nc4c(C(C)C)cnn34)c2)CC1` (single isomer, unassigned) [Compound 10, 4-acrylamido-N-(3-(((2-((3-hydroxycyclohexyl)amino)-8-isopropylpyrazolo[1,5-a][1,3,5]triazin-4-yl)amino)methyl)phenyl)cyclohexane-1-carboxamide], the inhibition at 10 µM turned out to be 89% and the IC50 lay in the range of 0.3 to 1 µM.

`C=CC(=O)N[C@H]1CC[C@@H](C(=O)Nc2cccc(CNc3nc(NC4CCCC(O)C4)nc4c(C(C)C)cnn34)c2)CC1` (single isomer, unassigned) [Compound 11, 4-acrylamido-N-(3-(((2-((3-hydroxycyclohexyl)amino)-8-isopropylpyrazolo[1,5-a][1,3,5]triazin-4-yl)amino)methyl)phenyl)cyclohexane-1-carboxamide]: the “% inhibition @ 10 μM” value is recorded as 89% and the IC50 was in the range of 0.3 to 1 µM.

As for `C=CC(=O)N1CCC(C(=O)Nc2cccc(CNc3nc(NC4CCCC(O)C4)nc4c(C(C)C)cnn34)c2)C1` (single isomer, unassigned) [Compound 12, 1-acryloyl-N-(3-(((2-((3-hydroxycyclohexyl)amino)-8-isopropylpyrazolo[1,5-a][1,3,5]triazin-4-yl)amino)methyl)phenyl)pyrrolidine-3-carboxamide], the inhibition at 10 µM turned out to be 92% and the IC50 was in the range of 0.3 to 1 µM.

For `C=CC(=O)N[C@H]1CC[C@@H](C(=O)Nc2cccc(CNc3nc(OC4CCOCC4F)nc4c(C(C)C)cnn34)c2)CC1` (single isomer, unassigned) [Compound 98, 4-acrylamido-N-(3-(((2-((3-fluorotetrahydro-2H-pyran-4-yl)oxy)-8-isopropylpyrazolo[1,5-a][1,3,5]triazin-4-yl)amino)methyl)phenyl)cyclohexane-1-carboxamide], the inhibition at 10 µM was 88% and the IC50 is 0.3 to 1 µM.

As to `C=CC(=O)N[C@H]1CC[C@@H](C(=O)Nc2cccc(CNc3nc(OC4CCOCC4F)nc4c(C(C)C)cnn34)c2)CC1` (single isomer, unassigned) [Compound 99, 4-acrylamido-N-(3-(((2-((3-fluorotetrahydro-2H-pyran-4-yl)oxy)-8-isopropylpyrazolo[1,5-a][1,3,5]triazin-4-yl)amino)methyl)phenyl)cyclohexane-1-carboxamide], the “% inhibition @ 10 μM” value came to 82% and the IC50 was above 1 µM.

With `C=CC(=O)N[C@H]1CC[C@@H](C(=O)Nc2cccc(CNc3nc(NC4CCOCC4)nc4c(C(C)C)cnn34)c2)CC1` [Compound 7, (1,4-cis)-4-acrylamido-N-(3-(((8-isopropyl-2-((tetrahydro-2H-pyran-4-yl)amino)pyrazolo[1,5-a][1,3,5]triazin-4-yl)amino)methyl)phenyl)cyclohexane-1-carboxamide], the inhibition at 10 µM was found to be 91% and the IC50 was above 1 µM.

Take `C=CC(=O)N[C@H]1CC[C@@H](C(=O)Nc2cccc(CNc3nc(N[C@H]4CC[C@H](O)CC4)nc4c(C(C)C)cnn34)c2)CC1` [Compound 9, (1,4-cis)-4-acrylamido-N-(3-(((2-(((1r,4r)-4-hydroxycyclohexyl)amino)-8-isopropylpyrazolo[1,5-a][1,3,5]triazin-4-yl)amino)methyl)phenyl)cyclohexane-1-carboxamide]: the inhibition at 10 µM was determined as 85% and the IC50 was above 1 µM.

On to `C=CC(=O)N1CCCCC1C(=O)Nc1cccc(CNc2nc(N[C@H]3CCCOC3)nc3c(C(C)C)cnn23)c1` (stereo partly drawn) [Compound 16, 1-acryloyl-N-(3-(((8-isopropyl-2-(((S)-tetrahydro-2H-pyran-3-yl)amino)pyrazolo[1,5-a][1,3,5]triazin-4-yl)amino)methyl)phenyl)piperidine-2-carboxamide], for which the IC50 is below 0.3 µM.

Regarding `CC(C)=CC(=O)N1CCC1C(=O)Nc1cccc(CNc2nc(NC3CCOCC3)nc3c(C(C)C)cnn23)c1` (stereo not shown) [Compound 17, N-(3-(((8-isopropyl-2-((tetrahydro-2H-pyran-4-yl)amino)pyrazolo[1,5-a][1,3,5]triazin-4-yl)amino)methyl)phenyl)-1-(3-methylbut-2-enoyl)azetidine-2-carboxamide], the inhibition at 10 µM is 84% and the IC50 is above 1 µM.

For the molecule `C=CC(=O)N1CC[C@@H]1C(=O)Nc1cccc(CNc2nc(NC3CCOCC3)nc3c(C(C)C)cnn23)c1` [Compound 19, (R)-1-acryloyl-N-(3-(((8-isopropyl-2-((tetrahydro-2H-pyran-4-yl)amino)pyrazolo[1,5-a][1,3,5]triazin-4-yl)amino)methyl)phenyl)azetidine-2-carboxamide], the inhibition at 10 µM stood at 100% and the IC50 is below 0.3 µM.

`C=CC(=O)NC1CCCC(C(=O)Nc2cccc(CNc3nc(NC4CCOCC4)nc4c(C(C)C)cnn34)c2)C1` (stereo not shown) [Compound 22, 3-acrylamido-N-(3-(((8-isopropyl-2-((tetrahydro-2H-pyran-4-yl)amino)pyrazolo[1,5-a][1,3,5]triazin-4-yl)amino)methyl)phenyl)cyclohexane-1-carboxamide]: the inhibition at 10 µM amounted to 98% and the IC50 is below 0.3 µM.

As for `C=CC(=O)N1CCOC(C(=O)Nc2cccc(CNc3nc(NC4CCOCC4)nc4c(C(C)C)cnn34)c2)C1` (stereo not shown) [Compound 23, 4-acryloyl-N-(3-(((8-isopropyl-2-((tetrahydro-2H-pyran-4-yl)amino)pyrazolo[1,5-a][1,3,5]triazin-4-yl)amino)methyl)phenyl)morpholine-2-carboxamide], the inhibition at 10 µM was 98% and the 50% inhibitory concentration (IC50) is below 0.3 µM.

With `C#CC(=O)N1CCOCC1C(=O)Nc1cccc(CNc2nc(NC3CCOCC3)nc3c(C(C)C)cnn23)c1` (stereo not shown) [Compound 25, N-(3-(((8-isopropyl-2-((tetrahydro-2H-pyran-4-yl)amino)pyrazolo[1,5-a][1,3,5]triazin-4-yl)amino)methyl)phenyl)-4-propioloylmorpholine-3-carboxamide], the inhibition at 10 µM was determined as 99% and the IC50 is below 0.3 µM.

For `C=CC(=O)N1CCOCC1C(=O)Nc1ccc(CC)c(CNc2nc(NC3CCOCC3)nc3c(C(C)C)cnn23)c1` (stereo not shown) [Compound 26, 4-acryloyl-N-(4-ethyl-3-(((8-isopropyl-2-((tetrahydro-2H-pyran-4-yl)amino)pyrazolo[1,5-a][1,3,5]triazin-4-yl)amino)methyl)phenyl)morpholine-3-carboxamide], the inhibition at 10 µM is 95% and the IC50 was 0.3 to 1 µM.

On to `C=CC(=O)N1CCC1C(=O)Nc1ccc(C)c(CNc2nc(NC3CCOCC3)nc3c(C(C)C)cnn23)c1` (stereo not shown) [Compound 27, 1-acryloyl-N-(3-(((8-isopropyl-2-((tetrahydro-2H-pyran-4-yl)amino)pyrazolo[1,5-a][1,3,5]triazin-4-yl)amino)methyl)-4-methylphenyl)azetidine-2-carboxamide], for which the inhibition at 10 µM worked out at 100% and the IC50 is below 0.3 µM.

`C=CC(=O)N1CCC1C(=O)Nc1cc(CNc2nc(NC3CCOCC3)nc3c(C(C)C)cnn23)ccc1C` (stereo not shown) [Compound 28, 1-acryloyl-N-(5-(((8-isopropyl-2-((tetrahydro-2H-pyran-4-yl)amino)pyrazolo[1,5-a][1,3,5]triazin-4-yl)amino)methyl)-2-methylphenyl)azetidine-2-carboxamide]: the inhibition at 10 µM was found to be 99% and the IC50 is below 0.3 µM.
